Here are results for three molecules from the NIST ThermoML archive (doi:10.1021/je100033s).

Each structure is given as a SMILES string. Numbers after ± are expanded uncertainties.

For series [1] the following is noted: Liquid; for mass density: 101.33 kPa, Pycnometric method; for Normal boiling temperature: Ebulliometric method (Recirculating still).
A short description of series [2]: refractive index (Na D-line) (dimensionless). The conditions noted are these: 101.33 kPa, Liquid, Standard Abbe refractometry.

Turning to `CCCO` [propan-1-ol], the mass density in series [1] (293.1 K) was found to be 804 ± 0.7 kg/m3. The Normal boiling temperature in series [1] was 97.09 ± 0.2 °C. In addition, in series [2] (293.1 K), the refractive index is recorded as 1.386 ± 0.0007.

Consider `CC#N` [acetonitrile], for which, in series [1] (293.1 K), the mass density came out at 783.1 ± 0.7 kg/m3. In addition, the Normal boiling temperature in series [1] stood at 81.50 ± 0.2 °C. For the same molecule, the refractive index in series [2] (293.1 K) was 1.3449 ± 0.0007.

With `C[S+](C)[O-]` [dimethyl sulfoxide], the mass density in series [1] (298.1 K) was determined as 1096.1 ± 1 kg/m3. Also, in series [1], the Normal boiling temperature worked out at 188.91 ± 0.2 °C. Moreover, the refractive index in series [2] (298.1 K) came to 1.4775 ± 0.0007.
